Patent publication US8642284B1, “Methods for identifying agents that alter NAD-dependent deacetylation activity of a SIR2 protein” (Massachusetts Institute of Technology, priority 1999, dated 2014)
Entries after “also recorded” stand apart in the source; their conditions may differ.

Legend:
[1] = molecular target: T1, mSir2α (Mus musculus, UniProt Q923E4); assay: ADP-ribosylation assay, sensitivity of mSir2α to poly- and mono-ADP-ribosylation inhibitors (histone H2B, 32P-NAD); assay type: biochemical; settings: 40 μM
T1 construct: ADP-ribosylase activity of bacterial recombinant full-length proteins of ySir2p and mSir2α was determined in in vitro assays; 6×His; made in house; host or cells: E. coli BL21 (DE3) pLysS with an extra copy of arginine tRNA gene, pET28a
T1 sequence (Q923E4 1-737): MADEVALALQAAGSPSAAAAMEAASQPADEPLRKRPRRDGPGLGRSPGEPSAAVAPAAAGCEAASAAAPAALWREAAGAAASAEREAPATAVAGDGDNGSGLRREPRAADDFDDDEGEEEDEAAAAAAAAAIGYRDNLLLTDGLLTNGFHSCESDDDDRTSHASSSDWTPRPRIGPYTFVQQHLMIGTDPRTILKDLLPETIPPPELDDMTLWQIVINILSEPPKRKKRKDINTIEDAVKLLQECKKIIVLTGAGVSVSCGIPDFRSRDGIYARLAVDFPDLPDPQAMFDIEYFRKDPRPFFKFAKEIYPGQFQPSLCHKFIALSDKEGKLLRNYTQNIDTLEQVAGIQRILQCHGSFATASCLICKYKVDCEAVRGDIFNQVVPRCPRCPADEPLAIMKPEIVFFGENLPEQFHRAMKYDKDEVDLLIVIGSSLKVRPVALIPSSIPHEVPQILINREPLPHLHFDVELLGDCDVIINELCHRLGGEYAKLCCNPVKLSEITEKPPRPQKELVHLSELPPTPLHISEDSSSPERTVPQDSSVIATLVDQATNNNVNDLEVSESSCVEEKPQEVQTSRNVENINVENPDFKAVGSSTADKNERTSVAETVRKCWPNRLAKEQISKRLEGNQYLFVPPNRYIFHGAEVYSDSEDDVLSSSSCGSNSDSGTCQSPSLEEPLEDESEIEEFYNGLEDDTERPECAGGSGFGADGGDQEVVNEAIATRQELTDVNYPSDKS
Procedure: (§1) The typical reaction was performed in 50 or 100 μl of the buffer containing 5 mM Tris-HCl [pH8.0 or 9.0], 4 mM MgCl2, 0.2 mM DTT, 1 μM cold β-NAD^+ (SIGMA®) and 8 μCi nicotinamide adenine dinucleotide 5′[α-^32P]triphosphate (NAD) as a donor of ADP-ribose (˜1000 Ci/mmol, Amersham Pharmacia Biotech). To check the sensitivity to poly- or mono-ADP-ribosylation inhibitors, 3-aminobenzamide (ICN Pharmaceuticals, CA), benzamide, novobiocin and coumermycin A1 (SIGMA®) were added to the reactions prior to adding Sir2 proteins, respectively. The wild type or mutant recombinant proteins (0.5-1 μg for ySir2p and 10 μg of mSir2α) were added with 4 μg of each histone purchased from Roche Molecular Biochemicals (Indianapolis, Ind.). For the peptide experiments, 5-10 μg of unacetylated or acetylated N-terminal tail peptides (amino acids 1-20) of H3 and H4 purchased from Upstate Biotechnology™ (Lake Placid, N.Y.) were used as substrates of the yeast and mouse Sir2 recombinant proteins.
To analyze histone modification, 25 μl of 100% trichloroacetic acid (TCA) solution was mixed to the reaction mixture and left on ice for 15 min. The protein precipitates were centrifuged at 4° C. and washed with 5 or 20% TCA solution twice. The pellets were dissolved in 15 μl of Leammli's sample buffer and boiled for 1.5 min. The proteins were electrophoresed in a 10-20% gradient SDS-PAGE gel. The gel was stained with COOMASSIE® Brilliant Blue R-250 (GibcoBRL Life Technologies™, Frederick, Md.) to check equal loading of histones, dried, and exposed to KODAK® X-OMAT film.
The sensitivity of the ADP-ribosylase activity of mSir2α to poly ADP-ribosylation inhibitors (3-aminobenzamide and benzamide) and mono-ADP-ribosylation inhibitors (novobiocin and coumermycin A1) was evaluated. (FIG. 4F).

[2] = molecular target: T2, Sir2p (Saccharomyces cerevisiae, UniProt P06700); assay: NAD-dependent deacetylation of di-acetylated H3 peptide by recombinant yeast Sir2p (HPLC); assay type: biochemical; settings: 200 μM
T2 construct: purified recombinant yeast (rSir2p) protein, mouse Sir2 (mSir2α) proteins and vector controls; 6×His; made in house; host or cells: E. coli BL21 (DE3), pET28a
T2 sequence (P06700 whole entry): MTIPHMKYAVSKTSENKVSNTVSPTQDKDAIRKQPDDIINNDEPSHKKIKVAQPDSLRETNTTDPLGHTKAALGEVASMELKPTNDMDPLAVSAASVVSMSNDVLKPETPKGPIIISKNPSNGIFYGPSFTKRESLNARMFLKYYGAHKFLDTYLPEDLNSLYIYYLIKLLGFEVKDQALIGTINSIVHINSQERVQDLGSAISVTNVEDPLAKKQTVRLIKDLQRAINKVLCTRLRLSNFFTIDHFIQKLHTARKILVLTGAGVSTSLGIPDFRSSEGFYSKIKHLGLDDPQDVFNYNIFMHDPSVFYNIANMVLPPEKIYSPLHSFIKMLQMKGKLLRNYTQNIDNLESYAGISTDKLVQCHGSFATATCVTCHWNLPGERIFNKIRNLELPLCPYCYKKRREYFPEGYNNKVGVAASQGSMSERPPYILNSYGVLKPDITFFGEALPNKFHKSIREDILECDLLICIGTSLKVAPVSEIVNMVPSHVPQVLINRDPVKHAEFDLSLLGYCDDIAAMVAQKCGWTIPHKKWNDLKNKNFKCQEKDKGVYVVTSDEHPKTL
Procedure: (§2) The typical reaction of Sir2 deacetylase activity was performed in 50 μl of buffer containing 50 mM Tris-HCl [pH 9.0], 4 mM MgCl2, 0.2 mM DTT, variable concentration of cold nicotinamide adenine dinucleotide (NAD) or NAD derivatives (SIGMA®, MO), 5-10 μg of the purified recombinant Sir2 proteins, and 10 μg of the histone H3 N-terminal tail peptide (amino acid 1-20) di-acetylated at positions 9 and 14 (Upstate Biotechnology™, NY). […] To detect the ADP-ribosylation activity, 8 μCi of NAD 5′-[α-^32P]triphosphate (˜1000 Ci/mmol, Amersham Pharmacia Biotech™, NJ) was added to the same reaction containing 1 μM cold NAD. Histone H3 protein (4 μg) (Roche Molecular Biochemicals™, IN) were used for this assay. All reaction mixtures were incubated at room temperature for 1 hr. Trichostatin A and coumermycin A1 (SIGMA™) were prepared in dimethylsulfoxide (DMSO, SIGMA®), and 5 μl of solvent or inhibitor was added to the reactions prior to adding Sir2 proteins.
After the incubation, the products were precipitated at −20° C. overnight by adding 50 μl of distilled water and 25 μl of 100% trichloroacetic acid (TCA) solution. For high pressure liquid chromatography (HPLC), the precipitates were reconstituted in 5% CH3CN and 0.1% trifluoroacetic acid (TFA) and run in the gradient concentration between 0.05% TFA and 0.043% TFA plus 80% CH3CN on Hewlett Packard Model 1100 HPLC system with 214TP52 column (VYDAC, CA). The chromatograms at the absorbance of 210 nm were digitally recorded and analyzed by Hewlett Packard ChemStation™ system (version A.06.03 [509]). Fractions of samples were collected every 1 min by Gilson™ Fraction Collector Model 203. Peptide sequencing was done by the Applied Biosystems PROCISE® 494 HT protein sequencing system. PTH amino acid chromatograms were recorded and analyzed by the ABI Model 610A2.1 data integration/analysis system.
The experiments employed purified recombinant Sir2p in a reaction with NAD and a peptide of the histone H3 amino-terminal tail (residues 1-20) di-acetylated at lysines 9 and 14. These lysines are hypoacetylated in silenced chromatin and mutations at these positions to glycine greatly reduce silencing in vivo (Thompson, J. S., et al., Nature 369: 245-247 (1994)). The products of a reaction containing 5 μg of recombinant yeast Sir2p (79 pmoles) (FIG. 8a), 10 μg of the H3 peptide (4.2 nmoles) increasing concentrations of NAD were analyzed s by high pressure liquid chromatography (HPLC).

[3] = molecular target: T2, Sir2p; assay: ADP-ribosylation and NAD hydrolysis by recombinant yeast Sir2p (intact histone H3, H3 peptide; SDS-PAGE, TLC); assay type: biochemical; settings: 200 μM; for inhibition of NAD hydrolysis by Sir2p: H3 peptide, TLC; for inhibition of ADP-ribosylation by Sir2p: intact histone H3 and H3 peptide
Procedure: as §1, §2
Electron-spray mass spectroscopy (also referred to herein as mass spectroscopy) was done on the PE Sciex Model API365™ system. Matrix assisted laser desorption/ionization (MALDI) mass spectroscopy can also be used. The electron-spray mass spectroscopy data were analyzed by the BioMultiView Program™ (version 1.3.1). To detect the ADP-ribosylated intact H3 protein, the pellets were dissolved in 15 μl of Leammli sample buffer, boiled for 1.5 min and electrophoresed in a 10-20% gradient SDS-PAGE gel. The gel was stained with Coomassie Brilliant Blue to check equal loading of histones, dried, and exposed to KODAK® X-OMAT film. […]
The effects of a known inhibitor of mono-ADP-ribosyltransferases, coumermycin A1 (Banasik, M., et al., Mol. Cell. Biochem. 138: 185-187 (1994)) was evaluated. […]

[4] = tested on: mono-ADP-ribosyltransferases; settings: literature value; read-out: reported IC50 concentration; cited from earlier work

CO[C@H]1[C@H](OC(=O)c2ccc(C)[nH]2)[C@H](O)[C@@H](Oc2ccc3c(O)c(NC(=O)c4c[nH]c(C(=O)Nc5c(O)c6ccc(O[C@H]7OC(C)(C)[C@@H](OC)[C@H](OC(=O)c8ccc(C)[nH]8)[C@@H]7O)c(C)c6oc5=O)c4C)c(=O)oc3c2C)OC1(C)C [coumermycin A1]
inhibition of ADP-ribosylation by mSir2α [1]: strongly inhibited | inhibition of deacetylation of the H3 tail by Sir2p [2]: did not inhibit; also recorded: not capable of inhibiting | inhibition of NAD hydrolysis by Sir2p [3]: inhibited | inhibition of NAD hydrolysis by Sir2p ([3]; listed as Coumermycin A1): inhibit | inhibition of ADP-ribosylation by Sir2p [3]: inhibited | inhibition of ADP-ribosylation by Sir2p ([3]; listed as Coumermycin A1): inhibit | IC50 [4]: 27 µM
